Activity calls are given as the source filed them.

The values that follow come from ChEMBL document CHEMBL1201862, “PubChem BioAssay data set” (2004).

The target in one experiment is ORF 73 (Human herpesvirus 8, UniProt O40947). The experiment can be described thus: KSHV LANA DNA-binding disruption – biochemical, fluorescence polarization, cherry-picked samples, dose response (AID 504725).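 Further: fluorescence polarization of a labeled DNA duplex reporting LANA DNA binding; potency is for inhibitors that block LANA binding to the DNA.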 The arrangement: species or system Human gammaherpesvirus 8.
ORF 73, sequence (O40947 whole entry): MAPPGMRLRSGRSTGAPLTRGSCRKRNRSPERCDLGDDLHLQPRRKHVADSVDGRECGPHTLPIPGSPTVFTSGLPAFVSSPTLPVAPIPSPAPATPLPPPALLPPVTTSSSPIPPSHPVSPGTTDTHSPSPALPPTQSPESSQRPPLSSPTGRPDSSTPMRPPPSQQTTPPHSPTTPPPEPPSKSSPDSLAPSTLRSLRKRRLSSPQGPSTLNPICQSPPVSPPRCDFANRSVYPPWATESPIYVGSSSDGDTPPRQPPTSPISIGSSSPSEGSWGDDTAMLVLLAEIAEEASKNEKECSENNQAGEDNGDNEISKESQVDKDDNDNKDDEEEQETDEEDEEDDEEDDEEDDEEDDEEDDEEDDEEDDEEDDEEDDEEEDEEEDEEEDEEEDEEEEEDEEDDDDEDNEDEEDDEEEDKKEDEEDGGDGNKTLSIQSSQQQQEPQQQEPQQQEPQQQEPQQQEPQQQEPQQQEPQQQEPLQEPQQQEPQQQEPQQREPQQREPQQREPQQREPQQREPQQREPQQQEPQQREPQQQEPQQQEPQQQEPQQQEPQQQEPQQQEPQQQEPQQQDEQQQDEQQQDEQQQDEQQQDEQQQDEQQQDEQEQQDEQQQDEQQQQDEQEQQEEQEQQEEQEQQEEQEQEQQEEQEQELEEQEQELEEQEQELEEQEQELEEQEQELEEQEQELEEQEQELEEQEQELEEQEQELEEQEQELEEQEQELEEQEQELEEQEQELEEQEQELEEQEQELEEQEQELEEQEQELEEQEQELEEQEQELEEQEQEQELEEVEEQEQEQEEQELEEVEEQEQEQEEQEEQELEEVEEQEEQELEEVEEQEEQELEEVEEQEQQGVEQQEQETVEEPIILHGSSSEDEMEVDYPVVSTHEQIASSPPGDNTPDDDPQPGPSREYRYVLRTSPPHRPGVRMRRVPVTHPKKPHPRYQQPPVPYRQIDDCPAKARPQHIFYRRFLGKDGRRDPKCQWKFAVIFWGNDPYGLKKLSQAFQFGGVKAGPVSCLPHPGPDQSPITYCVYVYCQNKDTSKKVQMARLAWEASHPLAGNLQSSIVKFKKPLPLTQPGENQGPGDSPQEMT
Experiment [1] concerns the target T1, Small ubiquitin-related modifier 1 (Homo sapiens, UniProt P63165). The experiment can be described thus: SUMO1 protein interaction blockers, potency – biochemical, fluorescence polarization, uHTS hits, dose response (AID 624382). The class given is functional. The conditions noted are these: read-out: IC50_Mean.
The target of experiment [2] is T2, Polyadenylate-binding protein 1 (Homo sapiens, UniProt P11940). The experiment can be described thus: MLLE binding blockers, Cy5 peptide tracer – biochemical, fluorescence polarization, Cy5-PAM2 peptide, secondary, miRNA deadenylation inhibitor project, dose response (AID 602260). Type of experiment: functional. The conditions noted are these: read-out: IC50_Mean.
T2 sequence (P11940 whole entry): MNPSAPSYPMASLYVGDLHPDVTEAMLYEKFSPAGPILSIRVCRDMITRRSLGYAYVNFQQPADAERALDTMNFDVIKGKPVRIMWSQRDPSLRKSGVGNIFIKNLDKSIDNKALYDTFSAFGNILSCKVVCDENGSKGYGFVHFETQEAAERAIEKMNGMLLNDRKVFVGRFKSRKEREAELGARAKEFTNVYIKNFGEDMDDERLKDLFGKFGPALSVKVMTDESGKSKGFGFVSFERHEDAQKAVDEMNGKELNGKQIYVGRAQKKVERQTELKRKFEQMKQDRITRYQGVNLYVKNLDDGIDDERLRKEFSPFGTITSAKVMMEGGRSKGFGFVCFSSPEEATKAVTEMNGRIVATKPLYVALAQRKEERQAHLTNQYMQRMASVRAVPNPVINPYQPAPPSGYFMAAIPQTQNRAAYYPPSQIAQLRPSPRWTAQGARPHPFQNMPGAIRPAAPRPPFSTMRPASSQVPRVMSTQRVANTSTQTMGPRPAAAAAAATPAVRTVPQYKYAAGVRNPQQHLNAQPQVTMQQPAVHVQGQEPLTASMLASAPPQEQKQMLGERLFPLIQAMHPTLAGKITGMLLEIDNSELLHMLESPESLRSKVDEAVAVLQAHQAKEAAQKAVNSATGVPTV

For the next experiment, the system named is Vero. The experiment can be described thus: viability of Vero cells under compound – cytotoxicity control for flavivirus capping enzyme inhibitors (AID 588742). Type of experiment: functional. The conditions noted are these: Chlorocebus sabaeus.
Experiment [3] has as its target T2, Polyadenylate-binding protein 1. The experiment can be described thus: MLLE domain peptide-binding blockers, IC50 – biochemical, fluorescence polarization, FITC-PAM2 peptide, dose response (AID 602259). The conditions noted are these: read-out: IC50_Mean. Type of experiment: functional.
The target of the next experiment is Genome polyprotein (dengue virus type 2, UniProt P29990). The experiment can be described thus: flavivirus cap methylation enzyme inhibition – biochemical, confirmation dose response, primary screen (AID 588689). The class given is functional.
Genome polyprotein, sequence (P29990 2492-3391 limits assumed): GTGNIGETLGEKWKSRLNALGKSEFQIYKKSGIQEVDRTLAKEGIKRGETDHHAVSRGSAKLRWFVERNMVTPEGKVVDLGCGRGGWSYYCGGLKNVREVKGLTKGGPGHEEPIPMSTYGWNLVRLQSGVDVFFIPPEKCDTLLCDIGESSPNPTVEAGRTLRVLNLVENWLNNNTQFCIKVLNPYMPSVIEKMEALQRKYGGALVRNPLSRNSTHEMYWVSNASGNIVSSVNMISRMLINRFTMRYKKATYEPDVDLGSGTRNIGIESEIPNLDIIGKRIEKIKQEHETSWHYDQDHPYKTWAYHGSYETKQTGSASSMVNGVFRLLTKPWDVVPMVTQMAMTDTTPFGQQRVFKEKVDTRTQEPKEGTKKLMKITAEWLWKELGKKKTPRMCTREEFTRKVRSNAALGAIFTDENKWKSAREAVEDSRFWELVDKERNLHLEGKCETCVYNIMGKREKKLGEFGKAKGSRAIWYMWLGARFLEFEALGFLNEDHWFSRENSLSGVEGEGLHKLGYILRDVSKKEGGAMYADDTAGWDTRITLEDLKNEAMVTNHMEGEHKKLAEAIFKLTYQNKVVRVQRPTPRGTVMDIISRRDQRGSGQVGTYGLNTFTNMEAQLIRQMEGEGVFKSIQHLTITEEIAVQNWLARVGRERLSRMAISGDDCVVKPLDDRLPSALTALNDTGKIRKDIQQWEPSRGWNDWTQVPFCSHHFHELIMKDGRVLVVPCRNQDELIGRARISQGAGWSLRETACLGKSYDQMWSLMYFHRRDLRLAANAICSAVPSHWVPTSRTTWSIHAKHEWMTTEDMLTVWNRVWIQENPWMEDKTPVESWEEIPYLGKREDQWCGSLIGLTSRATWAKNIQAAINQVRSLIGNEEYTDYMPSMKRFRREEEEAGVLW
The target in experiment [4] is T1, Small ubiquitin-related modifier 1. Put plainly: SUMO1 protein-protein binding blockers, potency – biochemical, FRET, dose response (AID 624383). Type of experiment: functional. The conditions noted are these: read-out: IC50_Mean.
The target in experiment [5] is T3, RNA-binding protein pos-1 (Caenorhabditis elegans, UniProt G5EF15).
T3 sequence (G5EF15 whole entry): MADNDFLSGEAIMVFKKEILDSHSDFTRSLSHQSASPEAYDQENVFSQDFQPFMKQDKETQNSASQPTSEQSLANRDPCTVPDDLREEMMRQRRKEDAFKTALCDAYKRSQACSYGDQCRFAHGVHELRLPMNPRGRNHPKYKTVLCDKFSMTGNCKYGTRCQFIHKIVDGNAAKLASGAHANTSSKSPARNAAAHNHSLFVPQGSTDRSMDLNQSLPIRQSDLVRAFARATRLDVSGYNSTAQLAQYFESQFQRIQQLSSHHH
The experiment can be described thus: disruptors of C. elegans POS-1 RNA interaction – biochemical, fluorescence polarization, dose response (AID 1964).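 Further: purified POS-1 fused to maltose binding protein made in E. coli; potency of compounds blocking POS-1 binding to fluorescent RNA.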

The target of experiment [6] is T4, Rac GTPase-activating protein 1 (Homo sapiens, UniProt Q9H0H5).
T4 sequence (Q9H0H5 whole entry): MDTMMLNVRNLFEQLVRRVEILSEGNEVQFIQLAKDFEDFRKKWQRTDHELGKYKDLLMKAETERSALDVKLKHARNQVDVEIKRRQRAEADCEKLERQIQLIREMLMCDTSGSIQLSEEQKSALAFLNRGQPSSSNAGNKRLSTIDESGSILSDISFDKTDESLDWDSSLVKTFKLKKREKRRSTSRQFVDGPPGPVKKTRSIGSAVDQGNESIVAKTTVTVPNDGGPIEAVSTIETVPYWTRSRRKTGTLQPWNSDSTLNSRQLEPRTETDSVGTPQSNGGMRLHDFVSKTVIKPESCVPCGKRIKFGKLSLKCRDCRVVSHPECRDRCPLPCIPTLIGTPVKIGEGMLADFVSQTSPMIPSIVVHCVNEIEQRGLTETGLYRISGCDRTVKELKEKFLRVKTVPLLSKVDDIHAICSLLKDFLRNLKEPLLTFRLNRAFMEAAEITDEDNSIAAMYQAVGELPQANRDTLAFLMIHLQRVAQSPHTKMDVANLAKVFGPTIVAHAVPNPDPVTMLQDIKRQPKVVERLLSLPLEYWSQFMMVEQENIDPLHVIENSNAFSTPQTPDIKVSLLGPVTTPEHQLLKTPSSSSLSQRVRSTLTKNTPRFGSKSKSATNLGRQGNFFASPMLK
The experiment can be described thus: blockers of MgcRacGAP-driven Rac1 GTP hydrolysis – biochemical, ADP Hunter fluorescence, primary and confirmatory, confirmation (AID 624330). Type of experiment: functional.

The target of experiment [7] is T5, Zinc finger protein mex-5 (Caenorhabditis elegans, UniProt Q9XUB2).
T5 sequence (Q9XUB2 whole entry): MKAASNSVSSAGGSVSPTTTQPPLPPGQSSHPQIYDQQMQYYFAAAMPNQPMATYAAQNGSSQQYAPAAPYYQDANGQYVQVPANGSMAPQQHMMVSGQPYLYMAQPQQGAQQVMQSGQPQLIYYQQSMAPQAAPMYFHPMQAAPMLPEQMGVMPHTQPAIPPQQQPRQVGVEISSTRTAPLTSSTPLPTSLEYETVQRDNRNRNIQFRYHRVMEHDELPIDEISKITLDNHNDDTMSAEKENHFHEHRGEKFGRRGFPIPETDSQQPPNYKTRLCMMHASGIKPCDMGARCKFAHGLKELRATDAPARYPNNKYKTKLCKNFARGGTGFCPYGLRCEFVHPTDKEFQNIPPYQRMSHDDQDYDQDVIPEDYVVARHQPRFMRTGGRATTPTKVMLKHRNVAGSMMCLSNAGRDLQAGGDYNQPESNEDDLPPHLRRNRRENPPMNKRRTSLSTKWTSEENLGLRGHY
The experiment can be described thus: potency of MEX-5 RNA-binding blockers – biochemical, C. elegans, fluorescence polarization, dose response (AID 1960).

T1 sequence (P63165 whole entry): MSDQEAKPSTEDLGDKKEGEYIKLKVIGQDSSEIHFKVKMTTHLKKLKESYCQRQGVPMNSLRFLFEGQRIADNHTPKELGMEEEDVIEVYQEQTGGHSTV

As for `CCOC(=O)C1Nc2ccc(C(=O)O)cc2C2C=CCC12` (stereo not given), at ORF 73, the AC50 is 42.9 µM (active). Also, the IC50 in [1] is > 66.6 µM (inactive); in experiment [2], > 66 µM (inactive); in experiment [3] it was > 66 µM (inactive); on Genome polyprotein, 44.9 µM (active); in experiment [4], 39 µM (inactive); in experiment [6] it was 305 µM (active). The CC50 with Vero was > 40 µM (active). For the same compound, the EC50 in [5] was 38.9 µM (active); in experiment [7] it was 20.3 µM (active).
